Measurements taken from US7790759B2, “Glycyrrhetinic acid-30-amide derivatives and their use” (Tianjin Institute of Pharmaceutical Research, priority 2005, dated 2010).

What was measured:
writhing response = experiment: Analgesic effect: acetic acid-induced writhing response; format: in vivo, ICR mice; conditions: 50 mg/kg intragastric; for Writhing occurrence (x ± s): 0.6% acetic acid i.p. 1 h after administration, counted during 15 minutes, n = 10
Experimental: Male or female healthy ICR mice, each weighing 18-22 g, were used. Each mouse was injected intraperitoneally with 0.6% acetic acid in a dose of 0.2 ml one day before the test. The mice with the writhing response occurring in the range of 10-50 times were selected. The selected mice were grouped randomly into model, positive control and test groups based on the occurrence of the writhing response, with 10 animals for each group. The positive group was treated with aspirin in a dose of 50 mg/kg of body weight.
After fasting for at least 12 h, the animals were intragastrically administrated: the animals in model group are administered only with 1% CMCNa in the same amount. 1 h after administration, the mice were intraperitoneally injected with 0.6% acetic acid in a dose of 0.2 ml per animal. After 5 min, the occurrence of the writhing responses for one mouse was recorded during a period of 15 minutes. Based on the occurrence recorded, the inhibition rate of the active ingredient for writhing response was calculated. Inhibition rate=(means of the writhing occurrence for model group−means of the writhing occurrence for test group)/means of writhing occurrence for model group×100%. (3) Cough-prevention

cough = experiment: Cough-prevention: ammonia-induced cough; format: in vivo, ICR mice; conditions: for Cough occurrence (x ± sd) / Inhibition rate of cough (%): 50 mg/kg intragastric; for Cough occurrence (x ± sd): ammonia 1 h after administration, observed within 5 min, n = 10; for Inhibition rate of cough (%): versus model group
Experimental: Male or female healthy ICR mice, each weighing 18-22 g, were used. They were grouped randomly into model, positive control and test groups based on body weight, with 10 animals for each group. The positive group was treated by codeine phosphate in a dose of 50 mg/kg of body weight.
After fasting for at least 12 h, the animals were intragastrically administrated: the animals in model group are administered only with 1% CMCNa in the same amount. To start the test, 1 h after administration, the mice were placed in a 500 ml container, into which a cotton ball sucking 0.3 ml of ammonia was added to cause coughing. The occurrence of cough was observed within 5 min. Inhibition rate of cough=(the cough occurrence for model group−the cough occurrence for test group)/the cough occurrence for model group×100%. (4) Aldosterone-like Side Effects

swollen ear model = experiment: Anti-inflammatory effect: xylene-induced swollen ear model; format: in vivo, ICR mice; conditions: 40 mg/kg, intragastric, xylene on right ear 30 min after administration; weight ratio swollen ear to normal ear; n 8-10
Experimental: Male or female healthy ICR mice, each weighing 18-20 g, were grouped randomly into model, positive control and test groups based on body weight, with 8-10 animals for each group. The positive group was treated by hydrocortisone in a dose of 40 mg/kg of body weight.
The compound of formula I to be tested was administered intragastrically at a concentration of 2 mg/ml in a 1% CMCNa solution, while a 1% CMCNa solution alone was administered to the model group in the same amount. 30 min after administration, 50 μl of xylene solution was added dropwise into the right ear of each mouse to cause an inflammation reaction. 30 min later, the mice were killed by breaking the cervical vertebrae. Both ears were excised immediately from the mices, and punched in the same position with a puncher having a diameter of 0.6 cm. The obtained ear piece was weighed. For each mouse, the weight ratio of swollen ear to normal ear was regarded as an indication for the degree of swelling. Biostatistical analysis was performed using the Student's t test.

Influenza virus A = experiment: Influenza virus A-infected mice models; format: in vivo; conditions: 100 mg/kg
[1] = system: paracetamol/hepatitis mice models; experiment: Liver protection in paracetamol/hepatitis mice models; conditions: 100 mg/kg
[2] = Subacute toxicity within one month (death); format: in vivo; conditions: 300 mg/kg of body weight for one week
Experimental: (§1) Three compounds of formula I of the invention were selected to examine their subacute toxicity within one month, with dexamethasone and glycyrrhetinic acid as control. […] Furthermore, the level of aldosterone in blood plasma was determined. The level will decrease in a negative feedback way when an agent having aldosterone-like effects is administrated.

aldosterone = format: in vivo; conditions: subacute toxicity study
Experimental: as §1

Row | Compound | Writhing occurrence (x ± s) (writhing response) | Inhibition rate of writhing response (%) (writhing response; versus model group) | Cough occurrence (x ± sd) (cough) | Inhibition rate of cough (%) (cough) | Swelling degree of the swollen ear model (%) (x ± sd) (swollen ear model) | further results
1 | CC1(C(=O)NCc2cc(-c3ccc(O)cc3)no2)CCC2(C)CCC3(C)C(=CC(=O)C4C5(C)CCC(O)C(C)(C)C5CCC43C)C2C1 (stereo not shown) [Compound G1, N-[(3-p-hydroxylphenyl-isoxazol-5-yl)methyl]-glycyrrhetinamide] | 16.33 ± 10.57 | 19.7 | 28.20 ± 15.39 | −1.44 |  | 
2 | Cc1ccc(-c2cc(CNC(=O)C3(C)CCC4(C)CCC5(C)C(=CC(=O)C6C7(C)CCC(O)C(C)(C)C7CCC65C)C4C3)on2)cc1 (stereo not shown) [Compound G2, N-[(3-p-methylphenyl-isoxazol-5-yl)methyl]-glycyrrhetinamide] |  |  |  |  | 68.6 ± 29.5 | 
3 | CC1(C(=O)NCc2cc(-c3ccc(F)cc3)no2)CCC2(C)CCC3(C)C(=CC(=O)C4C5(C)CCC(O)C(C)(C)C5CCC43C)C2C1 (stereo not shown) [Compound G3, N-[(3-p-fluorophenyl-isoxazol-5-yl)methyl]-glycyrrhetinamide] |  |  |  |  | 60.8 ± 27.9 | 
4 | COc1ccccc1-c1cc(CNC(=O)C2(C)CCC3(C)CCC4(C)C(=CC(=O)C5C6(C)CCC(O)C(C)(C)C6CCC54C)C3C2)on1 (stereo not shown) [Compound G6, N-[(3-o-methoxyphenyl-isoxazol-5-yl)methyl]-glycyrrhetinamide] |  |  |  |  | 53.4 ± 35.2 | 
5 | Cc1ccc(-c2cc(CNC(=O)[C@@]3(C)CC[C@]4(C)CC[C@]5(C)C(=CCC6[C@@]7(C)CC[C@H](O)C(C)(C)C7CC[C@]65C)[C@@H]4C3)on2)cc1 (stereo partly shown) [DG2, N-[(3-p-methylphenyl-isoxazol-5-yl)methyl]-11-deoxy-glycyrrhetinamide] |  |  |  |  | 80.2 ± 18.8 | 
6 | CC1(C(=O)NCc2cc(-c3ccc(F)cc3)no2)CCC2(C)CCC3(C)C(=CCC4C5(C)CCC(O)C(C)(C)C5CCC43C)C2C1 (stereo not shown) [DG3, N-[(3-p-fluorophenyl-isoxazol-5-yl)methyl]-11-deoxy-glycyrrhetinamide] | 18.33 ± 13.56 | 9.8 | 17.70 ± 7.10 | 36.33 | 56.1 ± 28.3 | 
7 | CC1(C)[C@@H](O)CC[C@]2(C)[C@H]3CC=C4[C@@H]5C[C@@](C)(C(=O)NCc6cc(-c7ccccc7Cl)no6)CC[C@]5(C)CC[C@@]4(C)[C@]3(C)CC[C@@H]12 [DG4, N-[(3-o-chlorophenyl-isoxazol-5-yl)methyl]-11-deoxy-glycyrrhetinamide] | 6.56 ± 6.19 | 67.8 | 18.80 ± 7.04 | 32.37 |  | Death rate caused by the virus infection (Influenza virus A): decreased
8 | COc1ccccc1-c1cc(CNC(=O)C2(C)CCC3(C)CCC4(C)C(=CCC5C6(C)CCC(O)C(C)(C)C6CCC54C)C3C2)on1 (stereo not shown) [DG6, N-[(3-o-methoxyphenyl-isoxazol-5-yl)methyl]-11-deoxy-glycyrrhetinamide] | 8.00 ± 6.48 | 60.7 | 22.60 ± 9.56 | 18.71 | 64.4 ± 29.2 | GPT [1]: decreased
9 | Cc1cc(CNC(=O)C2(C)CCC3(C)CCC4(C)C(=CCC5C6(C)CCC(O)C(C)(C)C6CCC54C)C3C2)on1 (stereo not shown) [DG7, N-[(3-methyl-isoxazol-5-yl)methyl]-11-deoxy-glycyrrhetinamide] | 15.78 ± 12.43 | 22.4 | 20.40 ± 14.31 | 26.62 |  | 
10 | CC1(C(=O)NCc2cc(-c3cccc(Cl)c3)no2)CCC2(C)CCC3(C)C(=CCC4C5(C)CCC(O)C(C)(C)C5CCC43C)C2C1 (stereo not shown) [DG8, N-[(3-m-chlorophenyl-isoxazol-5-yl)methyl]-11-deoxy-glycyrrhetinamide] | 15.89 ± 16.67 | 21.9 | 17.90 ± 8.21 | 35.61 |  | 
11 | COc1ccccc1-c1cc(CNC(=O)[C@@]2(C)CC[C@]3(C)CC[C@]4(C)C(=CC(=O)[C@@H]5[C@@]6(C)CC[C@H](OC(C)=O)C(C)(C)[C@@H]6CC[C@]54C)[C@@H]3C2)on1 [RG1, N-[(3-o-methoxyphenyl-isoxazol-5-yl)methyl]-3-acetoxy-glycyrrhetinamide] |  |  | 17.64 ± 6.34 | 36.55 |  | 
12 | CC(=O)Oc1ccccc1C(=O)O [aspirin, reference compound] | 5.44 ± 5.87 |  |  |  |  | inhibition at 50 mg/kg (writhing response; Mus musculus, po, versus model group, read-out: Inhibition rate of writhing response (%)): 73.2%
13 | COc1ccc2c3c1O[C@H]1[C@@H](O)C=C[C@H]4[C@@H](C2)N(C)CC[C@@]341 [codeine phosphate, reference compound] |  |  | 8.40 ± 8.95 |  |  | inhibition at 50 mg/kg (cough; Mus musculus, po, read-out: Inhibition rate of cough (%)): 69.8%
14 | C[C@@H]1C[C@H]2[C@@H]3CCC4=CC(=O)C=C[C@]4(C)[C@@]3(F)[C@@H](O)C[C@]2(C)[C@@]1(O)C(=O)CO [dexamethasone] |  |  |  |  |  | Death in subacute toxicity test [2]: All the animals died
15 | CC1(C)[C@@H](O)CC[C@]2(C)[C@H]3C(=O)C=C4[C@@H]5C[C@@](C)(C(=O)O)CC[C@]5(C)CC[C@@]4(C)[C@]3(C)CC[C@@H]12 [glycyrrhetinic acid] |  |  |  |  |  | Aldosterone level in blood plasma (ng/ml) (x ± sd) (aldosterone; 300 mg/kg, n = 8): 68.3 ± 12.5 ng/mL; Aldosterone-like effects (decrease of plasma aldosterone by negative feedback) (aldosterone): confirmed the aldosterone-like effects; Death in subacute toxicity test [2]: no death was observed
16 | C[C@]12CCC(=O)C=C1CC[C@@H]1[C@@H]2[C@@H](O)C[C@@]2(C)[C@H]1CC[C@]2(O)C(=O)CO [hydrocortisone, reference compound] |  |  |  |  | 55.7 ± 35.4 | 
